Test results published in patent US12180252B2, “Peptide derived from PEP27 peptide and uses thereof” (priority 2021, dated 2024).
Values after ≈ are worked out from the molar mass of the structure shown. Like-named read-outs stand apart in the source and are kept apart here.

Experiments:
[1] = test system: Staphylococcus aureus MW2; test: Hematoxylin and eosin staining of abscess tissue; format: in vivo, mouse; details: tissue on day 7, treated 2 hours after infection
Description: Among tissues on the abscess portion and infected portion gathered in the above 13, the tissue on day 7 was fixed with 4% buffered formalin. The infection portion or abscess portion fixed with formalin was embedded in paraffin, while staining a fragment of the cross-section with hematoxylin and eosin.

[2] = test system: TNF-α, IL-1β, IL-6, iNOS and COX-2; test: Pro-inflammatory cytokine gene expression in abscess tissue, qPCR; format: in vivo, mouse; details: mRNA relative to β-actin
Procedure: For mice not infected with bacteria, infected mice, and mice subjected to treatment using PEP27-2 alone, ceftriaxone alone or a combination thereof after infection, the expression of inflammatory genes in the mice were measured thus to verify the efficacy of each of PEP27-2 single treatment and combination treatment with antibiotics.
Specifically, total RNA was isolated from wound tissues using Trizol reagent. From the prepared total RNA, cDNA was synthesized using a cDNA synthesis kit. qPCR was implemented using qPCR 2× premix (SYBR Green), followed by determining expression amounts of TNF-α, IL-1β, IL-6, iNOS and COX-2 among inflammatory genes. Expression levels were quantified based on β-actin, and the PCR process was conducted as followed: at 50° C. for 2 minutes and at 95° C. for 10 minutes; 95° C. for 15 seconds, 60° C. for 1 minute, 40 cycles; 95° C. for 15 seconds, 60° C. for 1 minute, 95° C. for 30 seconds, and 60° C. for 15 seconds. The gene expression was calculated after standardization to β-actin level through ΔΔCt method.

[3] = test system: P. aeruginosa ATCC27853; test: microbe, parasite or virus in culture; details: Pseudomonas aeruginosa, ATCC27853, 18 h, read-out: Minimal inhibitory concentration
Procedure: (§1) In order to evaluate the antimicrobial activity of the peptides prepared by the method of above 1, a minimal inhibitory concentration (MIC) value as the minimum concentration of a peptide, in which cells are not divided, was measured.
(§2) Specifically, the strains shown in Table 3 below were purchased, cultured in a medium having a constitutional composition suitable for each strain to a mid-log phase, and then diluted to a concentration of 2×10^4 cells/100 μl to prepare the product on a micro-titration plate (Nunc, USA). Then, PEP27, PEP27-1, PEP27-2 or PEP27-5 peptide synthesized in the above 1 was added to each well by serial dilution ½ times, followed by incubation at 37° C. for 18 hours.
(§3) Specifically, subject strains were prepared by the method of above 2, and were treated with the antibiotics, that is, meropenem, ceftazidime, ceftriaxone or vancomycin, respectively, followed by determining MICs of the antibiotics.

[4] = test system: P. aeruginosa 4891; test: microbe, parasite or virus in culture; details: Pseudomonas aeruginosa, 4891, 18 h, read-out: Minimal inhibitory concentration
Procedure: as §1, §2, §3

[5] = test system: S. aureus ATCC25923; test: microbe, parasite or virus in culture; details: Staphylococcus aureus, ATCC25923, 18 h, read-out: Minimal inhibitory concentration
Procedure: as §1, §2, §3

[6] = test system: S. aureus CCARM3518; test: microbe, parasite or virus in culture; details: Staphylococcus aureus, CCARM3518, 18 h, read-out: Minimal inhibitory concentration
Procedure: as §1, §2, §3

[7] = test system: S. aureus ATCC29213; test: microbe, parasite or virus in culture; details: Staphylococcus aureus, ATCC29213, 18 h, read-out: Minimal inhibitory concentration
Procedure: as §1, §2, §3

[8] = test system: S. aureus CCARM3089; test: microbe, parasite or virus in culture; details: Staphylococcus aureus, CCARM3089, 18 h, read-out: Minimal inhibitory concentration
Procedure: as §1, §2, §3

[9] = test system: P. aeruginosa 4007; test: microbe, parasite or virus in culture; details: Pseudomonas aeruginosa, 4007, 18 h, read-out: Minimal inhibitory concentration
Procedure: as §1, §2, §3

[10] = test system: P. aeruginosa ATCC15692; test: microbe, parasite or virus in culture; details: Pseudomonas aeruginosa, ATCC15692, 18 h, read-out: Minimal inhibitory concentration
Procedure: as §1, §2, §3

[11] = test system: S. aureus MW2; test: microbe, parasite or virus in culture; details: Staphylococcus aureus, MW2, 18 h, read-out: Minimal inhibitory concentration
Procedure: as §1, §2, §3

[12] = test system: S. aureus USA300; test: microbe, parasite or virus in culture; details: Staphylococcus aureus, USA300, 18 h, read-out: Minimal inhibitory concentration
Procedure: as §1, §2, §3

[13] = test system: S. aureus CCARM3090; test: microbe, parasite or virus in culture; details: Staphylococcus aureus, CCARM3090, 18 h, read-out: Minimal inhibitory concentration
Procedure: as §1, §2, §3

[14] = test system: Staphylococcus aureus MW2-GFP; format: in vivo, mouse; details: up to 3 days after infection with 1×10^9 CFU
Procedure: For real-time tracking the progress of infection with regard to the peptide that has the most excellent antimicrobial activity among the peptides prepared by the method of above 1, fluorescence (GFP)-labeled Staphylococcus aureus MW2 (Staphylococcus aureus MW2-GFP) was used. Fluorescence images were taken from the beginning of infection to 6 hours, 1 day, 2 days and 3 days by means of an FOBI fluorescence imaging system (Neo Science, Suwon, Korea), followed by analysis thereof using live image software.

[15] = test system: Staphylococcus aureus MW2; format: in vivo, BALB/c mouse; details: for reduction of the number of bacteria in abscess tissue: 0.2 mg/kg alone, injected 2 hours after infection
Procedure: The efficacy of PEP27-2, which is the peptide having the most excellent antimicrobial activity among the peptides prepared by the method of above 1 was evaluated in vivo using a mouse model.
Specifically, the epidermis on the back side (dorsal side) of 6-7 week old BALB/c mouse was infected with Staphylococcus aureus MW2 having GFP gene inserted therein (S. aureus MW2-GFP, 1×10^9 CFU/10 μl PBS). After 2 hours form infection, PEP27-2 alone (0.2 mg/kg, 50 μl), ceftriaxone alone (0.2 mg/kg, 50 μl) or a combination of the peptide and the antibiotic (0.05 mg/kg PEP27-2+0.1 mg/kg ceftriaxone, 50 μl) was injected. Further, the control mice were injected with the same amount of PBS ([…]) without peptide. On 1st, 2nd, 3rd, 4th, 5th and 7th days after treatment, the shape of abscess was photographed, and surrounding tissues as well as the abscess were gathered. The abscess tissue was homogenized in 500 μl of sterile PBS using a tissue grinder. A serial diluted solution of the homogenate was spread on an agar plate and cultured for 24 hours in order to quantify the Staphylococcus aureus MW2 strain.

[16] = test system: HaCaT cells; test: Cell absorption of peptide (fluorescence imaging); format: cell-based, human; details: 5 μM, 1 hour
Procedure: With regard to the synthetic peptide prepared by the method of above 1, an ability of penetrating cells was determined through a phase-contrast microscope. Specifically, human keratinocyte line (HaCaT cells) was dispensed on a 6-well plate provided with a polylysine coating cover slip (SPL Life Sciences, Gyeonggi-do, Korea) at 2×10^5 cells/well and cultured for 24 hours, and then treated with fluorescein isothiocyanate (FITC)-labeled PEP27-2 (FITC-PEP27-2) at a concentration of 5 μM, followed by incubation in a 5% CO2 incubator for 1 hour. After 1 hour, a nucleus of the cell was treated and stained with Hoechst 33342 nucleic acid dye solution (Invitrogen, Carlsbad, CA, USA; 8 μM) for 10 minutes. After washing the stained product with PBS three times, fluorescence in the cells was imaged using a phase-contrast microscope (EVOS™ FL Auto 2 Imaging System, Thermo Fisher Scientific).

Compound | number of visible scabs formed on the skin surface and number of bacteria [1] | expression of inflammatory cytokines (TNF-α, IL-1β, IL-6, iNOS, COX-2) [2] | MIC [3] [µM] | MIC [4] [µM] | MIC [5] [µM] | MIC [6] [µM] | MIC [7] [µM] | MIC [8] [µM] | MIC [9] [µM] | MIC [10] [µM] | MIC [11] [µM] | MIC [12] [µM] | MIC [13] [µM] | fluorescence signal of S. aureus MW2-GFP at the abscess [14] | size of formed abscess ([15]; compared with infected group injected only with PBS, up to day 7) | reduction of the number of bacteria in abscess tissue ([15]; day 3) [%] | reduction of the number of bacteria in abscess tissue ([15]; day 7) [%] | cellular absorption into HaCaT cells [16]
CO/N=C(\C(=O)N[C@@H]1C(=O)N2C(C(=O)O)=C(CSc3nc(=O)c(=O)[nH]n3C)CS[C@H]12)c1csc(N)n1 [Ceftriaxone, ceftriaxone] | markedly reduced | suppressed | 8 (≈ 4.44 µg/mL) | 64 (≈ 35.5 µg/mL) | 8 (≈ 4.44 µg/mL) | 256 (≈ 142 µg/mL) | 4 (≈ 2.22 µg/mL) | 512 (≈ 284 µg/mL) | 16 (≈ 8.87 µg/mL) | 16 (≈ 8.87 µg/mL) | 32 (≈ 17.7 µg/mL) | 16 (≈ 8.87 µg/mL) | 512 (≈ 284 µg/mL) | not reduced | smaller than the experimental group in which only PBS was injected | 46.0 | 61.5 | 
GRKKRRQRRRPQ (TAT) |  |  |  |  |  |  |  |  |  |  |  |  |  |  |  |  |  | absorbed into the cytoplasm and the nucleus of HaCaT cell
